Assay results from PubChem BioAssay AID248 (DTP/NCI, 2004).
Toxic doses and inconclusive results are not listed.

Tested on: L1210 leukemia ip in BDF1 mice, survival T/C
Assay: NCI In Vivo Anticancer Drug Screen. Data for tumor model L1210 Leukemia (intraperitoneal) in B6D2F1 (BDF1) mice
Settings: endpoint: mean survival time, higher = longer survival
Procedure, shortened: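 In this screen, tumor-bearing mice given compound are compared to those given vehicle, and their survival values are reported as a treated-to-control quotient.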

[1] = dose: 50.0 mg/kg/injection, schedule: Q01DX001 (ip), vehicle: carboxymethylcellulose (CMC)
[2] = dose: 200.0 mg/kg/injection, schedule: Q01DX001 (ip), vehicle: carboxymethylcellulose (CMC)
[3] = dose: 200.0 mg/kg/injection, schedule: Q01DX001 (ip), vehicle: saline
[4] = dose: 400.0 mg/kg/injection, schedule: Q01DX001 (ip), vehicle: carboxymethylcellulose (CMC)
[5] = dose: 400.0 mg/kg/injection, schedule: Q01DX001 (ip), vehicle: saline
[6] = dose: 100.0 mg/kg/injection, schedule: Q04DX003 (ip), vehicle: other
[7] = dose: 50.0 mg/kg/injection, schedule: Q01DX009 (ip), vehicle: Klucel (hydroxypropylcellulose) (HPC)
[8] = dose: 100.0 mg/kg/injection, schedule: Q01DX009 (ip), vehicle: Klucel (hydroxypropylcellulose) (HPC)
[9] = dose: 200.0 mg/kg/injection, schedule: Q01DX009 (ip), vehicle: Klucel (hydroxypropylcellulose) (HPC)
[10] = dose: 100.0 mg/kg/injection, schedule: Q01DX001 (ip), vehicle: saline
[11] = dose: 100.0 mg/kg/injection, schedule: Q01DX001 (ip), vehicle: carboxymethylcellulose (CMC)
[12] = dose: 100.0 mg/kg/injection, schedule: Q04DX002 (ip), vehicle: saline with Tween-80
[13] = dose: 200.0 mg/kg/injection, schedule: Q04DX002 (ip), vehicle: saline with Tween-80
[14] = dose: 100.0 mg/kg/injection, schedule: Q04DX003 (ip), vehicle: saline with Tween-80
[15] = dose: 200.0 mg/kg/injection, schedule: Q04DX003 (ip), vehicle: saline with Tween-80
[16] = dose: 400.0 mg/kg/injection, schedule: Q04DX003 (ip), vehicle: saline with Tween-80

For CSc1ncc(Br)c(Sc2nc(N)nc3nc[nH]c23)n1, the T/C (dose: 0.25 mg/kg/injection, schedule: Q01DX Z (ip), vehicle: other) was 107 % of control, the T/C (dose: 0.5 mg/kg/injection, schedule: Q01DX Z (ip), vehicle: other) was 103 % of control and the T/C (dose: 1.0 mg/kg/injection, schedule: Q01DX Z (ip), vehicle: methylcellulose (MC)) was 98 % of control. For the same compound, the T/C (dose: 1.0 mg/kg/injection, schedule: Q01DX Z (ip), vehicle: other) was 103 % of control, the T/C (dose: 3.0 mg/kg/injection, schedule: Q01DX Z (ip), vehicle: carboxymethylcellulose (CMC)) was 121 % of control and the T/C (dose: 3.0 mg/kg/injection, schedule: Q01DX Z (ip), vehicle: methylcellulose (MC)) was 97 % of control. The T/C (dose: 6.0 mg/kg/injection, schedule: Q01DX Z (ip), vehicle: methylcellulose (MC)) was 107 % of control, the T/C (dose: 10.0 mg/kg/injection, schedule: Q01DX001 (ip), vehicle: saline with Tween-80) was 156 % of control and the T/C (dose: 12.0 mg/kg/injection, schedule: Q01DX001 (ip), vehicle: saline with Tween-80) was 190 % of control. The T/C (dose: 12.0 mg/kg/injection, schedule: Q01DX Z (ip), vehicle: carboxymethylcellulose (CMC)) was 158 % of control, the T/C (dose: 14.0 mg/kg/injection, schedule: Q01DX001 (ip), vehicle: saline with Tween-80) was 200 % of control and the T/C (dose: 19.0 mg/kg/injection, schedule: Q01DX001 (ip), vehicle: saline with Tween-80) was 162 % of control. For the same compound, the T/C (dose: 29.0 mg/kg/injection, schedule: Q01DX001 (ip), vehicle: saline) was 244 % of control, the T/C (dose: 30.0 mg/kg/injection, schedule: Q01DX001 (ip), vehicle: saline with Tween-80) was 162 % of control and the T/C (dose: 32.0 mg/kg/injection, schedule: Q01DX Z (ip), vehicle: other) was 96 % of control. The T/C (dose: 33.5 mg/kg/injection, schedule: Q01DX Z (ip), vehicle: carboxymethylcellulose (CMC)) was 107 % of control, the T/C (dose: 44.0 mg/kg/injection, schedule: Q01DX001 (ip), vehicle: saline with Tween-80) was 164 % of control and the T/C (dose: 45.0 mg/kg/injection, schedule: Q01DX001 (ip), vehicle: saline) was 236 % of control. The T/C (dose: 48.0 mg/kg/injection, schedule: Q01DX Z (ip), vehicle: carboxymethylcellulose (CMC)) was 103 % of control, the T/C [1] was 158 % of control and the T/C (dose: 66.0 mg/kg/injection, schedule: Q01DX001 (ip), vehicle: saline) was 101 % of control. For the same compound, the T/C (dose: 100.0 mg/kg/injection, schedule: Q01DX001 (ip), vehicle: saline with Tween-80) was 104 % of control, the T/C (dose: 100.0 mg/kg/injection, schedule: Q01DX Z (ip), vehicle: methylcellulose (MC)) was 91 % of control and the T/C (dose: 150.0 mg/kg/injection, schedule: Q01DX001 (ip), vehicle: saline with Tween-80) was 120 % of control. For the same compound, the T/C (dose: 150.0 mg/kg/injection, schedule: Q01DX001 (ip), vehicle: saline) was 105 % of control, the T/C [2] was 103 % of control and the T/C [3] was 122 % of control. For the same compound, the T/C [4] was 94 % of control and the T/C [5] was 99 % of control.

With CCC(CO)NC(=O)/C=C/c1cccc(Br)c1 (centres undefined) the T/C [6] was 102 % of control, the T/C (dose: 200.0 mg/kg/injection, schedule: Q04DX003 (ip), vehicle: other) was 103 % of control and the T/C (dose: 400.0 mg/kg/injection, schedule: Q04DX003 (ip), vehicle: other) was 96 % of control.

For Cc1c(Cl)c(=O)[nH]c2ccccc12, the T/C [7] was 101 % of control, the T/C [8] was 97 % of control and the T/C [9] was 106 % of control.

O=c1c2ccccc2[nH]c2c([N+](=O)[O-])cccc12 was tested, and the T/C (dose: 100.0 mg/kg/injection, schedule: Q01DX009 (ip), vehicle: saline with Tween-80) was 100 % of control, the T/C (dose: 200.0 mg/kg/injection, schedule: Q01DX009 (ip), vehicle: saline with Tween-80) was 99 % of control and the T/C (dose: 400.0 mg/kg/injection, schedule: Q01DX009 (ip), vehicle: saline with Tween-80) was 87 % of control.

In the case of CCN(CC)CCOC(=O)c1cc2ccccc2s1, the T/C [10] is reported as 94 % of control, the T/C [3] is reported as 102 % of control and the T/C [5] is reported as 96 % of control.

CN(C)c1ccc(/C=[N+](\[O-])c2cccc(Cl)c2)cc1 was tested, and the T/C (dose: 100.0 mg/kg/injection, schedule: Q01DX001 (ip), vehicle: Klucel (hydroxypropylcellulose) (HPC)) was 95 % of control, the T/C (dose: 100.0 mg/kg/injection, schedule: Q04DX003 (ip), vehicle: Klucel (hydroxypropylcellulose) (HPC)) was 102 % of control and the T/C (dose: 200.0 mg/kg/injection, schedule: Q01DX001 (ip), vehicle: Klucel (hydroxypropylcellulose) (HPC)) was 97 % of control. For the same compound, the T/C (dose: 200.0 mg/kg/injection, schedule: Q04DX003 (ip), vehicle: Klucel (hydroxypropylcellulose) (HPC)) was 100 % of control and the T/C (dose: 400.0 mg/kg/injection, schedule: Q04DX003 (ip), vehicle: Klucel (hydroxypropylcellulose) (HPC)) was 107 % of control.

With O=[N+]([O-])/C=C/c1ccccc1O the T/C (dose: 6.25 mg/kg/injection, schedule: Q04DX003 (ip), vehicle: saline) was 92 % of control, the T/C (dose: 12.5 mg/kg/injection, schedule: Q04DX003 (ip), vehicle: saline) was 101 % of control and the T/C (dose: 25.0 mg/kg/injection, schedule: Q04DX003 (ip), vehicle: saline) was 92 % of control.

In the case of C=CCC(O)CCCCC (centres undefined), the T/C [1] is reported as 101 % of control, the T/C [11] is reported as 92 % of control and the T/C [2] is reported as 97 % of control. For the same compound, the T/C [4] was 106 % of control.

CNC(Cc1ccccc1)c1ccco1 (centres undefined) was tested, and the T/C [7] was 104 % of control, the T/C [8] was 104 % of control and the T/C [12] was 107 % of control. The T/C [9] was 102 % of control and the T/C [13] was 110 % of control.

With CC(C)(C)c1cc(O)c(O)c(C(C)(C)C)c1 the T/C (dose: 25.0 mg/kg/injection, schedule: Q04DX003 (ip), vehicle: other) was 104 % of control, the T/C (dose: 50.0 mg/kg/injection, schedule: Q04DX003 (ip), vehicle: other) was 104 % of control and the T/C [6] was 105 % of control.

For CN(C)C=Nc1ncnc2[nH]ncc12, the T/C [14] was 107 % of control, the T/C (dose: 150.0 mg/kg/injection, schedule: Q04DX003 (ip), vehicle: saline with Tween-80) was 107 % of control and the T/C [15] was 123 % of control. The T/C (dose: 250.0 mg/kg/injection, schedule: Q04DX003 (ip), vehicle: saline with Tween-80) was 123 % of control.

In the case of CCOc1ccccc1NC(=O)CC(C)=O, the T/C [8] is reported as 89 % of control, the T/C [9] is reported as 88 % of control and the T/C (dose: 400.0 mg/kg/injection, schedule: Q01DX009 (ip), vehicle: Klucel (hydroxypropylcellulose) (HPC)) is reported as 93 % of control.

For O=C(O)c1cc(N=Nc2ccc(S(=O)(=O)Nc3nccs3)cc2)ccc1O, the T/C [11] was 95 % of control, the T/C [2] was 95 % of control and the T/C [4] was 101 % of control.

COC1OC(COC(C)=O)C(OC(C)=O)C2C1N2C(N)=S (centres undefined) was tested, and the T/C (dose: 100.0 mg/kg/injection, schedule: Q04DX002 (ip), vehicle: saline) was 110 % of control and the T/C (dose: 400.0 mg/kg/injection, schedule: Q04DX002 (ip), vehicle: saline) was 113 % of control.

For CCCCC(=O)N/N=C/C=C/c1ccccc1[N+](=O)[O-], the T/C [10] was 97 % of control, the T/C [3] was 105 % of control and the T/C [5] was 105 % of control.

C=C(Br)C(C)N (centres undefined) was tested, and the T/C (dose: 100.0 mg/kg/injection, schedule: Q01DX009 (ip), vehicle: saline) was 104 % of control.

In the case of O=c1oc2ccc([N+](=O)[O-])cc2o1, the T/C (dose: 75.0 mg/kg/injection, schedule: Q01DX001 (ip), vehicle: acetone) is reported as 108 % of control.

In the case of Nc1ncnc2sc(SCc3ccccc3)nc12, the T/C [14] is reported as 107 % of control, the T/C [15] is reported as 102 % of control and the T/C [16] is reported as 100 % of control.

In the case of C[N+]1(C)CCCCC1, the T/C (dose: 12.5 mg/kg/injection, schedule: Q01DX009 (ip), vehicle: saline) is reported as 106 % of control, the T/C (dose: 25.0 mg/kg/injection, schedule: Q01DX009 (ip), vehicle: saline) is reported as 101 % of control and the T/C (dose: 50.0 mg/kg/injection, schedule: Q01DX009 (ip), vehicle: saline) is reported as 97 % of control. For the same compound, the T/C (dose: 50.0 mg/kg/injection, schedule: Q04DX003 (ip), vehicle: saline) was 101 % of control.

With CC1CC(NC(=S)NC(=O)c2ccccc2Cl)CC(C)(C)C1 (centres undefined) the T/C [12] was 98 % of control, the T/C [13] was 113 % of control and the T/C (dose: 400.0 mg/kg/injection, schedule: Q04DX002 (ip), vehicle: saline with Tween-80) was 102 % of control.

In the case of O=[N+]([O-])c1ccc(N=Nc2ccc3c(c2)-c2ccccc2/C3=C\c2cccc([N+](=O)[O-])c2)cc1, the T/C [11] is reported as 93 % of control, the T/C [2] is reported as 96 % of control and the T/C [4] is reported as 98 % of control.

CCOC(=O)/C=C(C)/C=C/C1=C(C)CCCC1(C)C was tested, and the T/C [14] was 102 % of control, the T/C [15] was 96 % of control and the T/C [16] was 108 % of control.
